Data on three molecules can be found in US20120095185A1, “PROCESS FOR CHELATING COPPER IONS USING CB-TE2A BIFUNCTIONAL CHELATE” (NORDION (CANADA) INC., priority 2010, published 2012).

Data set [1] can be described thus: Conversion of isomer F1 (12b) to F2 (12a) in chloroform, followed by 13C-NMR. It counts as physicochemical. The note with it: 14 days at room temperature. The source says: FIG. 7A illustrates the aliphatic region of the ^13C-NMR spectrum of the F1 isomer (12b) in CDCl3 (bottom) and the aliphatic region of the ^13C-NMR spectrum of the F2 isomer (12a) in CDCl3 (top). FIG. 7B illustrates the aliphatic region of the ^13C-NMR spectra of the F1 isomer (12b) in CDCl3 at 0 days, 2 days, 6 days, 9 days and 14 days, showing that the F1 isomer (12b) slowly converts to the F2 isomer (12a).
After 14 days at room temperature, the conversion 12b (F1) to 12a (F2) was approximately 50% complete.

The nature of data set [2]: Optimisation of Cu-64 radiolabeling of 13a and 13b to >95% radiochemical yield. Particulars: depends on CB-TE2A BFC concentration. The source says: As used herein, the terms “degree of complexation” and “percent complexation” are used interchangeably and are defined to mean the percentage of the ion that is successfully complexed with the bifunctional chelate. Here percent complexation is expressed as radiochemical yield, which is the yield of radiolabeled complex expressed as a fraction of the radioactivity originally present. The value of radiochemical yield obtained when making the ion complexes of the present reaction can be greater than 90% or greater than 95%, as measured by reverse phase chromatography (HPLC).
The conditions required to radiolabel 13a and 13b with Cu-64 in >95% radiochemical yield were optimized for pH, temperature and reaction time (Table 1). The exact same radioisotope lot, buffer solutions, and conditions were used for the reaction and the analysis of both 13a and 13b.
Cu-64 radiolabeled 13a and 13b are distinct species with different retention times by HPLC. The analysis was conducted with a Phenomenex hydrosynergy RPC18 column (4.6×150 mm) using a gradient of 98% trifluoracetic acid in water (0.01% v/v) 2% acetonitrile to 50% trifluoracetic acid in water (0.01% v/v) 50% acetonitrile over 30 min at 1 mL/min.

SMILES strings stand for the structures.

As for `CCOC(=O)CN1CCCN2CCN(CCCN(C(CCc3ccc([N+](=O)[O-])cc3)C(=O)OC)CC2)CC1` (stereo not drawn) [12b, methyl 2-(11-(2-ethoxy-2-oxoethyl)-1,4,8,11-tetraazabicyclo[6.6.2]hexadecan-4-yl)-4-(4-nitrophenyl)butanoate], in data set [1], the “Conversion 12b (F1) to 12a (F2)” value is on record as “approximately 50%”.
Consider `O=C(O)CN1CCCN2CCN(CCCN(C(CCc3ccc([N+](=O)[O-])cc3)C(=O)O)CC2)CC1` (stereo not drawn) [13a], for which the Reaction time in data set [2] is given as 10-30 minutes depending on.
Take `O=C(O)CN1CCCN2CCN(CCCN(C(CCc3ccc([N+](=O)[O-])cc3)C(=O)O)CC2)CC1` (stereo not drawn) [13b]: in data set [2], the Reaction time is 60 min.
